Experimental findings from US12522628B2, “Aryl glucoside derivative and use thereof in drug” (SHANGHAI ZHEYE BIOTECHNOLOGY CO. LTD., priority 2020, dated 2026) are described below.

Data set [1] is described as follows: Lipid solubility and water solubility compared with Example 5. It counts as physicochemical.
Data set [2] is described as follows: Pharmacokinetic study in rats. It counts as in vivo, SD rats. The following applies: 10 mg/kg, oral gavage; for bioavailability: male, SD, rat, plasma, po, read-out: Absolute Bioavailability(F %). As to the method: • Experimental animals: SPF male SD rats; • Dosage and method of administration: 10 mg/kg, oral gavage.
Research compound: Dapagliflozin, the compound of Example 5, the compound of Example 7, the compound of Comparative Example 6; • Test method: Before administration (0), and 1, 4, 8, and 24 hours after administration, 0.2 ml of blood was collected from orbital venous plexus, anticoagulated with heparin, and plasma was collected.

The subject of data set [3] is blood glucose. Kind of data set: Oral glucose tolerance test (OGTT) after continuous administration in rats for 14 days. It counts as in vivo, SD rats. The following applies: 0.012 mg/kg oral gavage, OGTT on day 15. As to the method:
• Experimental animals: SPF male SD rats; • Compound preparation: an appropriate amount of the compounds of Example 2, Example 3, and Example 5 were weighed, and uniformly suspended with an appropriate amount of 0.5% CMC-Na solution; • Preparation of glucose solution: an appropriate amount of glucose powder was weighed and dissolved with an appropriate amount of pure water; • Dosage and method of administration: 0.012 mg/kg, oral gavage.
(§1) Experimental process: the animals were fed a normal diet with consecutive administration for 14 days, and the glucose tolerance test was performed on day 15, blood glucose was detected before administration (−30 min), before giving glucose (0 min), and 10, 30, 60, and 120 min after giving glucose solution, and the defecation of animals was observed.

Data set [4] is described as follows: Observation of defecation (loose stools) in rats during OGTT study. It counts as in vivo, SD rats. The following applies: 0.012 mg/kg oral gavage, within 48 hours before and after the experiment. As for the experimental part:
as §1

Data set [5] addresses T1, SGLT1 (Homo sapiens, UniProt P13866).
T1 sequence (P13866 1-664): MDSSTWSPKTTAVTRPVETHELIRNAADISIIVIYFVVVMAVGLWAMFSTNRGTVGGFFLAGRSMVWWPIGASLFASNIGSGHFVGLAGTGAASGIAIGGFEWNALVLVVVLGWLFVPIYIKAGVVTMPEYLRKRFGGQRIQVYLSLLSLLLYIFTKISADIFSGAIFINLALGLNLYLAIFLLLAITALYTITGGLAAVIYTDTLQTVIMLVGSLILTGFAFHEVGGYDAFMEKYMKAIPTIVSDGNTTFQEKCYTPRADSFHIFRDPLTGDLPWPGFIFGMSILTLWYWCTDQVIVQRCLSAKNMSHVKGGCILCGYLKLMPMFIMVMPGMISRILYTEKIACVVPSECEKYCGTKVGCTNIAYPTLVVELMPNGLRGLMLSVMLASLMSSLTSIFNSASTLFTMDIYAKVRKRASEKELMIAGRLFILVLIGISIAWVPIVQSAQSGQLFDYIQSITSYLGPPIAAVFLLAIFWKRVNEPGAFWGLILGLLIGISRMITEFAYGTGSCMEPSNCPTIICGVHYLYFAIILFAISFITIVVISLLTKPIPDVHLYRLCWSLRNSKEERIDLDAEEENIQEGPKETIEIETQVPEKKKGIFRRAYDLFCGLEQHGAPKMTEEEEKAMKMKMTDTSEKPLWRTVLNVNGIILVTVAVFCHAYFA
Nature of the data set: HSGLT1 inhibitor activity experiment: 2-NBDG uptake by HEK293 cells stably expressing human SGLT1. The following applies: for IC50: 2-NBDG uptake, HEK293 stably expressing human SGLT1, read-out: SGLT1 Inhibitory Activity. Also noted: expressed in transfected cells; host or cells: HEK293. It counts as cell-based. As for the experimental part: Inhibitory activity testing was performed with reference to a similar method described in document (Acta Pharmaceutica Sinica 2017, 52(6):897-903; Nature Protocols (2007), 2(3), 753-762; Journal of Biochemical and Biophysical Methods (2005), 64(3), 207-215; Diabetes Technology & Therapeutics (2011), 13(7), 743-775).
In this experiment, the in vitro activity assay was evaluated using the uptake of 2-NBDG (2-Deoxy-2-[(7-nitro-2,1,3-benzoxadiazol-4-yl)amino]-D-glucose, CAS NO: 186689-07-6) by human embryonic kidney epithelial cells (HEK293, stably expressing human SGLT1), and the SGLT1 inhibitory activity of the target compound was determined by measuring its half-maximal inhibitory concentration (IC50).
HEK293 cells that can stably express human SGLT1 gene were inoculated into a 96-well clear-bottom black plates containing DMEM medium. The cells were incubated at 37° C., 5% CO2in a cell incubator. The medium in the 96-well plate was aspirated, and the plate was treated with low-glucose serum-free DMEM medium, and washed once with non-specific uptake buffer and once with Na^+-dependent uptake buffer. Uptake buffer containing test compound was added to each well of cells, followed by uptake buffer containing 2-NBDG for glucose uptake, and the cell plate was incubated at 37° C., 5% CO2. The compounds were gradiently diluted. The uptake reaction was stopped by removing the culture medium, and after washing the cells with ice-cold uptake buffer, the washing solution was removed. The cells were lysed by adding NaOH, and the content of 2-NBDG in the cells was detected by a fluorescence microplate reader. The protein concentration of the lysate was measured by BCA method, the uptake of 2-NBDG was quantified by fluorescence intensity/protein content, and the obtained data were analyzed using GraphPad Prism to determine the median inhibitory concentration (IC50) of the compound to be tested.

The target in data set [6] is T1, SGLT1. Nature of the data set: SGLT1 Inhibitor Activity Experiment 1. It counts as cell-based. As to the method: The inhibitory activity of SGLT1 was tested with reference to the method described in document (Journal of Medicinal Chemistry 2017, 60, 710-721, Discovery of LX2761, a Sodium-Dependent Glucose Cotransporter 1 (SGLT1) Inhibitor Restricted to the Intestinal Lumen, for the Treatment of Diabetes).

Structures are written as SMILES.

On to `CS[C@H]1O[C@@H](c2ccc(C)c(Cc3ccc(CCCC(=O)NCCN(C)Cc4cn(C5CC5)nn4)cc3)c2)[C@H](O)[C@@H](O)[C@@H]1O`, for which, in data set [1], the “lipid solubility relative to Example 5” value is given as “better lipid solubility”; the “water solubility relative to Example 5” value was “better lipid solubility and water solubility”.

Turning to `CCOc1ccc(Cc2cc([C@@H]3O[C@H](CO)[C@@H](O)[C@H](O)[C@H]3O)ccc2Cl)cc1` [Dapagliflozin, reference compound], in data set [2], the “absorption in vivo after oral administration (in words)” value is on record as “absorbed into the blood” and the bioavailability was found to be 73%.

On to `CS[C@H]1O[C@@H](c2ccc(C)c(Cc3ccc(CCCC(=O)NCCN4CCN(C)CC4)cc3)c2)[C@H](O)[C@@H](O)[C@@H]1O` [Example 2], for which the “blood sugar level of rats in OGTT” value in data set [3] is reported as “significantly reduce the blood sugar level”. The “loose stools in experimental animals” value in data set [4] is listed as “no loose stools were observed”. In data set [5], the “activity of inhibiting SGLT1 (in words)” value is recorded as “significant activity of inhibiting SGLT1” and the IC50 was 0.97 nM.

In the case of `CS[C@H]1O[C@@H](c2ccc(C)c(Cc3ccc(CCCC(=O)NCCN4CCCCC4)cc3)c2)[C@H](O)[C@@H](O)[C@@H]1O` [Example 3], the “blood sugar level of rats in OGTT” value in data set [3] was “significantly reduce the blood sugar level”. For the same compound, the “loose stools in experimental animals” value in data set [4] is “no loose stools were observed”. Moreover, in data set [5], the “activity of inhibiting SGLT1 (in words)” value is given as “significant activity of inhibiting SGLT1” and the IC50 amounted to 0.83 nM.

With `CS[C@H]1O[C@@H](c2ccc(C)c(Cc3ccc(CCCC(=O)NCCN(C)Cc4ccccc4)cc3)c2)[C@H](O)[C@@H](O)[C@@H]1O` [Example 4], in data set [5], the “activity of inhibiting SGLT1 (in words)” value was “significant activity of inhibiting SGLT1” and the IC50 turned out to be 1.01 nM.

Consider `C#CCN(C)CCNC(=O)CCOc1ccc(Cc2cc([C@@H]3O[C@H](SC)[C@@H](O)[C@H](O)[C@H]3O)ccc2C)cc1` [Example 6], for which the IC50 in data set [6] was under 50 nM.

As for `C#CCN(C)CCNC(=O)CCOCc1ccc(Cc2cc([C@@H]3O[C@H](SC)[C@@H](O)[C@H](O)[C@H]3O)ccc2C)cc1` [Example 7], in data set [6], the IC50 was under 50 nM. Also, in data set [2], the “absorption in vivo after oral administration (in words)” value is recorded as “almost no absorption in vivo”, the “detection in vivo after oral administration (in words)” value is reported as “hardly detected in vivo” and the bioavailability was under 1.5%.

For `C#CCN(C)CCNC(=O)C/C=C/c1ccc(Cc2cc([C@@H]3O[C@H](SC)[C@@H](O)[C@H](O)[C@H]3O)ccc2C)cc1` [Example 8], the IC50 in data set [6] was under 50 nM.

Broadly, the bioavailability is dose-corrected exposure relative to a reference, in per cent.
